According to ChEMBL document CHEMBL1125035, “Synthesis and biological activity of novel vitamin D analogues: 24,24-difluoro-25-hydroxy-26,27-dimethylvitamin D3 and 24,24-difluoro-1 alpha,25-dihydroxy-26,27-dimethylvitamin D3” (1990):

How the values were obtained:
[1] = biological target: T1, Vitamin D-binding protein (Rattus norvegicus) (UniProt P04276); assay: Displacement of [3H]25-(OH)-D3 from rat plasma Vitamin D binding protein; format: cell-free
T1 sequence (whole entry): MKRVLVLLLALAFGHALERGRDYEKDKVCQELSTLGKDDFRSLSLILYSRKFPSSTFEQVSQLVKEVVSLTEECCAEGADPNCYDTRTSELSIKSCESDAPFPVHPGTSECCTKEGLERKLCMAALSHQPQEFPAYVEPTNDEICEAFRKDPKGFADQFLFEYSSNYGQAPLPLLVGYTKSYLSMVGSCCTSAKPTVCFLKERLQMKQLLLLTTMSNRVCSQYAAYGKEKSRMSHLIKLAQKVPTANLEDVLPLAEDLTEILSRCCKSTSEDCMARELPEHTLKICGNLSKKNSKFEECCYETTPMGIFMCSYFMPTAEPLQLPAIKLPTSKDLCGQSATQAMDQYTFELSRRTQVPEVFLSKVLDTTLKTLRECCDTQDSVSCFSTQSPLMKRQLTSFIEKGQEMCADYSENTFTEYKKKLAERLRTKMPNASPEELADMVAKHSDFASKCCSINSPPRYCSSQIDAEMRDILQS

Gallus gallus = species: Gallus gallus; assay: Bind to chick intestinal Vitamin D3 receptor for 1,25-(OH)2-D3
Rattus norvegicus [2] = species: Rattus norvegicus; assay: Calcium binding protein induction in duodenal organ culture at a concentration of 0.1 nM in Male Albino rats; format: functional
Rattus norvegicus [3] = species: Rattus norvegicus; assay: Calcium binding protein induction in duodenal organ culture at a concentration of 10 nM in Male Albino rats; format: functional
Rattus norvegicus [4] = species: Rattus norvegicus; assay: Calcium binding protein induction in duodenal organ culture at a concentration of 1 nM in Male Albino rats; format: functional
[5] = Relative potency against calcium binding protein induction in duodenal organ culture at a concentration of 0.01 nM compared to 1,25-(OH)2-D3 in Male Albino rats; format: functional
Rattus norvegicus [6] = species: Rattus norvegicus; assay: Calcium binding protein induction in duodenal organ culture at a concentration of 0.01 nM in Male Albino rats; format: functional

Row | SMILES | B50 [1] | B50 (Gallus gallus) | further results
1 | C=C1/C(=C/C=C2\CCC[C@]3(C)[C@@H]([C@H](C)CCCC(C)C)CC[C@@H]23)C[C@@H](O)C[C@@H]1O | 848 nM | 139 nM | 
2 | C=C1CC[C@H](O)C/C1=C/C=C1\CCC[C@]2(C)[C@@H]([C@H](C)CCC[C@@](C)(O)CO)CC[C@@H]12 | 4.03 nM | 4300 nM | 
3 | C=C1CC[C@H](O)C/C1=C/C=C1\CCC[C@]2(C)[C@@H]([C@H](C)CCCC(C)C)CC[C@@H]12 | 338 nM |  | 
4 | C=C1CC[C@H](O)C/C1=C/C=C1\CCC[C@]2(C)[C@@H]([C@H](C)CC[C@@H](O)C(C)(C)O)CC[C@@H]12 | 3.22 nM | 804 nM | 
5 | C=C1/C(=C/C=C2\CCC[C@]3(C)[C@@H]([C@H](C)CCC(F)(F)C(O)(CC)CC)CC[C@@H]23)C[C@@H](O)C[C@@H]1O |  |  | Ca2+ binding protein (Rattus norvegicus [2]): 21.7 ug (100mg of duodenum)-1; Ca2+ binding protein (Rattus norvegicus [3]): 94 ug (100mg of duodenum)-1; Ca2+ binding protein (Rattus norvegicus [4]): 49.5 ug (100mg of duodenum)-1; Relative potency [5]: 325; Ca2+ binding protein (Rattus norvegicus [6]): 11.9 ug (100mg of duodenum)-1
